The test system of the assay is irg-1. In words: Pirg-1GFP translation suppression reporter in worms. Type of assay: in vivo, C. elegans. To be noted: 3-hour treatment, 2 mg/ml. From the text: DIC microscopy was used to perform all the nucleolar imaging. Hypodermal cells of age-matched day 1 adults were imaged using 100× magnification with Olympus IX81. Freehand tool software from Fiji was used for nucleolar area quantification. FIB-1::GFP, HLH-30::GFP and N2+Pirg-1GFP worms were imaged using Olympus IX81 and Axio Imager Z1(Zeiss).

Consider `C[C@@H]1C[C@@H]([C@H](O)CC2CC(=O)NC(=O)C2)C(=O)[C@@H](C)C1` [cycloheximide], for which the Pirg-1GFP reporter induction result was “induced”. Moreover, the Pirg-1GFP reporter induction result (listed as Cyclohexamide) was “strongly induced”.

For the origin of these results see US11573231B2, “Biomarker of aging” (Max-Planck-Gesellschaft zur Forderung der Wissenschaften …, priority 2017, dated 2023).
